# Source: article PMC7946667 (Cancer Chemotherapy and Pharmacology, 2021)
# Values joined by “and” are separate entries in the source; they are usually repeats but may differ in a detail not shown here. Equal values may be shown once. Read-outs that look alike come from different tables or passages of the source.
# What was measured:
# [1] = test system: CYP3A; assay: Clinical DDI study: pharmacokinetics of midazolam (CYP3A probe substrate) and 1′-hydroxymidazolam with and without ceritinib; assay type: in vivo, human; settings: for Metabolite-to-parent ratio: AUC0–144 h based, molecular weight corrected; for AUC(0-inf): read-out: AUC0-inf, adjusted geometric mean
# Source text: This was a multicenter, open-label, single sequence, crossover phase I study (ClinicalTrials.gov identifier: NCT02422589) and was divided into two phases, DDI phase and post-DDI treatment phase (Fig. 1). Patients were recruited from 10 clinical centers located across 4 countries, namely Spain (n = 3), United States (n = 3), Italy (n = 3), and Denmark (n = 1).
# To assess the pharmacokinetics of probe substrates, blood samples were obtained on Days 1 and 28 at pre-dose and at 0.25, 0.5, 1, 2, 3, 4, 6, 8, 10, 24, 48, 72, 96, 120, and 144 h post-dose. […] A blood sample for CYP2C9 genotyping was collected on Day 1 of the DDI phase from all participating patients. Patients were categorized as CYP2C9 poor, intermediate, or extensive metabolizers based on the genotype testing results. This assessment was of exploratory nature and was not used as inclusion/exclusion criteria in the study.
# A linear mixed-effects model was fitted to the log-transformed primary PK parameters (Cmax, AUC0-144 h, and AUC0-inf) and included a fixed effect for treatment and a random effect for subject.
# [2] = test system: CYP2C9; settings: for AUC0-inf, adjusted geometric mean / Cmax, adjusted geometric mean: linear mixed effects model; for Tmax: median [min, max]; for AUC0–144 h / Cmax: patient plasma; for AUC0–144 h / Cmax / Metabolite-to-parent ratio: geometric mean (CV%); for Metabolite-to-parent ratio: AUC0–144 h based, molecular weight corrected
# [3] = test system: CYP3A; settings: PBPK, cited from earlier work
# [4] = midazolam 2.5 mg single oral dose + ceritinib 750 mg QD at steady state (Day 28), patient plasma, geometric mean (CV%)
# [5] = midazolam 2.5 mg single oral dose alone (Day 1), patient plasma, geometric mean (CV%)
# [6] = midazolam + ceritinib vs midazolam alone
# [7] = treatment warfarin + ceritinib 750 mg QD for 3 weeks
# [8] = warfarin 10 mg single oral dose + ceritinib 750 mg QD at steady state (Day 28)
# [9] = warfarin 10 mg single oral dose alone (Day 1)
# [10] = warfarin + ceritinib / warfarin alone
# [11] = midazolam 2.5 mg single oral dose + ceritinib 750 mg QD (Day 28), geometric mean (CV%)
# [12] = midazolam 2.5 mg single oral dose alone (Day 1), geometric mean (CV%)
smiles,measurement,setting,value
OCc1ncc2n1-c1ccc(Cl)cc1C(c1ccccc1F)=NC2 [1′-hydroxymidazolam],Tmax,"[1]; midazolam 2.5 mg single oral dose + ceritinib 750 mg QD (Day 28), median [min, max]",0.583 [0.250; 2.53] h
same,AUC0–144 h,[1]; [4],12.1 (87.0) h*ng/mL
same,Cmax,[1]; [4],1.90 (73.8) ng/mL
same,Tmax,"[1]; midazolam 2.5 mg single oral dose alone (Day 1), median [min, max]",0.500 [0.217; 2.00] h
same,AUC0–144 h,[1]; [5],14.7 (74.4) h*ng/mL
same,Cmax,[1]; [5],5.41 (74.1) ng/mL
same,Metabolite-to-parent ratio,"[1]; midazolam + ceritinib 750 mg QD (Day 28), geometric mean (CV%)",2.9% and 2.89 (66.7) %
same,decrease in the metabolite-to-parent AUC ratio,[1]; [6],85%
same,Metabolite-to-parent ratio,"[1]; midazolam alone (Day 1), geometric mean (CV%)",19.3% and 19.3 (66.3) %
"CC(=O)C[C@@H](c1ccccc1)c1c(O)c2ccc(O)cc2oc1=O [7-Hydroxy-S-warfarin, 7-hydroxy-S-warfarin]","AUC0-inf, adjusted geometric mean",[2]; [7],3330 ng·h/mL
same,"Cmax, adjusted geometric mean",[2]; [7],34.8 ng/mL
same,"AUC0-inf, adjusted geometric mean",[2]; treatment warfarin alone,3090 ng·h/mL
same,"Cmax, adjusted geometric mean",[2]; treatment warfarin alone,39.1 ng/mL
same,Tmax,[2]; warfarin 10 mg single oral dose + ceritinib 750 mg QD (Day 28),47.2 [8.50; 73.7] h
same,AUC0–144 h,[2]; [8],3320 (64.1) h*ng/mL
same,Cmax,[2]; [8],34.9 (61.6) ng/mL
same,Tmax,[2]; [9],24.2 [2.97; 49.9] h
same,AUC0–144 h,[2]; [9],2910 (61.8) h*ng/mL
same,Cmax,[2]; [9],39.7 (60.3) ng/mL
same,Metabolite-to-parent ratio,[2]; warfarin + ceritinib 750 mg QD (Day 28),11.7 (58.2) %
same,Metabolite-to-parent ratio,"[2]; warfarin + ceritinib 750 mg QD (Day 28), listed as 7-hydroxy-S-warfarin",11.7%
same,AUC0-inf geometric mean ratio (90% CI),[2]; [10],1.08
same,Cmax geometric mean ratio (90% CI),[2]; [10],0.890
same,decrease in the metabolite-to-parent AUC ratio,[2]; warfarin + ceritinib vs warfarin alone,18%
same,Metabolite-to-parent ratio,[2]; warfarin alone (Day 1),14.3 (66.6) %
same,Metabolite-to-parent ratio,"[2]; warfarin alone (Day 1), listed as 7-hydroxy-S-warfarin",14.3%
"Cc1ncc2n1-c1ccc(Cl)cc1C(c1ccccc1F)=NC2 [Midazolam, midazolam]",Tmax,"[1]; human, plasma, oral",~60 min
same,AUC(0-inf),"[1]; human, plasma, oral, treatment midazolam + ceritinib 750 mg QD for 3 weeks, linear mixed effects model",393 ng·h/mL
same,Cmax,"[1]; human, plasma, oral, treatment midazolam + ceritinib 750 mg QD for 3 weeks, linear mixed effects model, read-out: Cmax, adjusted geometric mean",42 ng/mL
same,AUC(0-inf),"[1]; human, plasma, oral, treatment midazolam alone, linear mixed effects model",72.5 ng·h/mL
same,Cmax,"[1]; human, plasma, oral, treatment midazolam alone, linear mixed effects model, read-out: Cmax, adjusted geometric mean",23 ng/mL
same,half-life,"[1]; human, plasma, po, 2.5 mg, midazolam 2.5 mg single oral dose alone (Day 1), geometric mean (CV%)",360 min
same,Cmax,"[1]; human, plasma, po, 2.5 mg, midazolam 2.5 mg single oral dose alone (Day 1), patient plasma, geometric mean (CV%), read-out: Cmax",23 ng/mL
same,AUC(0-t),"[1]; human, plasma, po, 2.5 mg, read-out: AUC0–144 h",70.2 ng·h/mL
same,Tmax,"[1]; human, plasma, po, 2.5 mg, read-out: Tmax",30 min
same,half-life,"[1]; human, plasma, po, midazolam 2.5 mg single oral dose + ceritinib 750 mg QD (Day 28), geometric mean (CV%)",900 min
same,Cmax,"[1]; human, plasma, po, midazolam 2.5 mg single oral dose + ceritinib 750 mg QD at steady state (Day 28), patient plasma, geometric mean (CV%), read-out: Cmax",42 ng/mL
same,CL/F,[1]; [11],6.36 L/h
same,T1/2,[1]; [11],15.4 (37.4) h
same,CL/F,[1]; [12],34.5 L/h
same,T1/2,[1]; [12],6.05 (47.8) h
same,decrease in apparent clearance (CL/F) of midazolam,[1]; [6],approximately 80%
same,predicted increase of midazolam AUC,[3]; ceritinib dosed to steady-state + single oral dose midazolam 5 mg,6 fold
same,predicted increase of midazolam AUC,[3]; single dose ceritinib 750 mg + single oral dose midazolam 5 mg,30%
